The source of these data is US9527858B2, “Compounds and compositions for use in phototherapy and in treatment of ocular neovascular disease and cancers” (Mallinckrodt LLC, priority 2009, dated 2016).

In one series the test system is AsPC-1 cells. In words: Comparative studies, orthotopic AsPC-1 pancreatic tumor in nude mice. The class given is in vivo. The conditions noted are these: subQ close to the pancreas, one injection per day for 10 days, total dose 20 mg/mouse; sacrificed at day 24; FIG. 4. As for the experimental part: In these experiments nude mice weighing approximately 25 grams were used. First, the tail of the pancreas was exposed through an abdominal incision. Then 1×10^6 AsPC-1 cells were injected into the pancreas. The pancreas was replaced in the peritoneal cavity and the incision was closed. A 3-5 mm diameter tumor developed in 10 days.
MNTX was dissolved at 40 mg/mL in phosphate buffered saline (PBS) and then formulated to 100 uL (50 uL drug and 50 uL PBS) and injected subQ close to the pancreas. One injection per day was given for 10 days. The total dose was therefore 20 mg/mouse. For control and comparison, experiments on mice that were 1) not treated, 2) treated with light alone, 3) treated with gemcitibine alone, and 4) treated with Avastin alone using essentially the same procedure as described above were performed. The mice were sacrificed at day 24 and tumor weight was determined.
FIG. 4 provides local tumor burden experimental results for comparative studies involving administration of MNTX, Avastin and Gemcitabine anti-tumor agents. Tumor weight (mg) is shown for tumor conditions of: no treatment (NT); treatment with light alone (light alone); treatment with Gemcitabine alone (GEM); treatment with Avastin alone (Avastin) and treatment with MNTX (MNTX).

A further series has as its system AsPC-1 pancreatic cancer. As to the kind of experiment: Pancreatic tumor growth inhibition studies, orthotopic AsPC-1 pancreatic cancer. The class given is in vivo, nude mice. The conditions noted are these: I.P. 150 mg/kg daily for 13 days, 10 animals, sacrificed on day 24; control PBS; FIG. 6. As for the experimental part:
In these experiments, the effect of a purified stereoisomer of MNTX on AsPC-1 pancreatic cancer was evaluated.
Nude mice weighing approximately 25 grams were used. The tail of the pancreas was exposed through an abdominal incision. Then 1×10^6 AsPC-1 cells were injected into the pancreas. The pancreas was replaced in the peritoneal cavity and the incision was closed. A 3-5 mm diameter tumor developed in 10 days.
MNTX1 was formulated at 10 mg/mL in PBS. The 150 mg/kg dose was accomplished by a […] injection of a 10 mg/mL stock solution. Injections were done daily for 13 days, and the 10 animals were subsequently sacrificed on day 24. Treatments start after 10 days of AsPC1 pancreatic tumor cell orthotopic implantation. After two more weeks, the mice are sacrificed and tumor weight is measured for the evaluation of tumor growth inhibition effects. For control, four mice were injected according to the above schedule with PBS only. They were also sacrificed on day 24. FIG. 5 provides a schematic illustrating the experimental design of the pancreatic tumor growth inhibition studies. I.P. treatments (150 mg MNTX1/kg/each injection, 300 μl of 10 mg/ml for each injection totally for 13 times, animal number=10).
FIG. 6 provides experimental results for the pancreatic tumor growth inhibition studies showing the effects of MNTX1 on AsPC-1 pancreatic cancer. […]

A short description of series [1]: Escalating dose study on mice. The conditions noted are these: intraperitoneal injection. The class given is in vivo. As for the experimental part: The MNTX1 dose was established using an escalating dose study on mice. An intraperitoneal injection dose of 150 mg/kg was chosen. For a dosage of 400 mg/kg, 2 of 2 died, for a dosage of 200 mg/kg, 1 of 4 died; and for a dosage of 150 mg/kg (300 μl of 10 mg/ml), 3 of 3 survived. Therefore, a dose of 150 mg/kg (Intraperitoneal injection, I.P.) was used for each administration in the following orthotopic pancreatic tumor growth inhibition experiments.

For the next series, the system named is endothelial cells. The following applies: cited from earlier work.
A further series deals with VEGF expression. The following applies: cited from earlier work.
For series [2] the following is noted: cited from earlier work.

In the case of `C[N@+]1(CC2CC2)CC[C@@]23c4c5ccc(O)c4CC1C2(O)CCC(=O)C3O5` (single isomer, unassigned; (-)) [MNTX, (−)-R-naltrexone methobromide], the “tumor weight measured at sacrifice” value in the series on AsPC-1 cells is “measurably superior to the control, Gemcitabine and Avastin conditions”; in the series on AsPC-1 pancreatic cancer it was “measurably superior to the control”. Moreover, the survived in series [1] (dosage of 150 mg/kg (300 μl of 10 mg/ml)) is recorded as 3 of 3. Also, the died in series [1] (dosage of 200 mg/kg) was 1 of 4; in series [1] (dosage of 400 mg/kg), 2 of 2. Also, the “synergy with Avastin to inhibit VEGF expression” value with endothelial cells was “synergistic”. Besides, the “synergy with 5-fluorouracil” value in the series on endothelial cells (in endothelial cells) is reported as “synergistic”.
For the molecule `COc1ccc2cc3[n+](cc2c1OC)CCc1cc2c(cc1-3)OCO2` [berberine], the “inhibition of VEGF expression” value in the series on VEGF expression was “some inhibition”.
For `C[N@+]1(CC2CC2)CC[C@]23c4c5ccc(O)c4O[C@H]2C(=O)CC[C@@]3(O)[C@H]1C5` [methylnaltrexone, reference compound], the “potentiation of the cytotoxic effect of 5-fluorouracil” value in the series on endothelial cells is listed as about 700 ×.
For α-interferon, in series [2] (clinically tested for MD), the adverse effects result is on record as “high rate of adverse effects” and the “clinical efficacy for MD” value is on record as “ineffective”.

B1: Lucentis: humanized anti-VEGF antibody fragment that inhibits VEGF activity by competitive binding (antibody, chains of the INN, looked up, V domains shown)
VH: EVQLVESGGGLVQPGGSLRLSCAASGYDFTHYGMNWVRQAPGKGLEWVGWINTYTGEPTYAADFKRRFTFSLDTSKSTAYLQMNSLRAEDTAVYYCAKYPYYYGTSHWYFDVWGQGTLVTVSS
VL: DIQLTQSPSSLSASVGDRVTITCSASQDISNYLNWYQQKPGKAPKVLIYFTSSLHSGVPSRFSGSGSGTDFTLTISSLQPEDFATYYCQQYSTVPWTFGQGTKVEIK
modifications: Fab
In the case of B1, the “patients maintaining their baseline vision” value in series [2] (wet macular degeneration, after 12 months of treatment) is reported as “About 95%”.
